The values that follow come from ChEMBL document CHEMBL1124293, “2,4-Diamino-6,7-dimethoxyquinoline derivatives as alpha 1-adrenoceptor antagonists and antihypertensive agents” (J Med Chem, 1988).

A word on the Ki: it is a dissociation constant, usually derived from enzyme kinetics or from competition with a known ligand. Lower therefore signals a stronger hold on the target.

Test [1] relates to Rattus norvegicus. The experiment in a line: Percent reduction in Spontaneously hypertensive rat blood pressure after 1 h of 3 mg/kg, po administration. Type of test: functional.
Test [2] has as its system Rattus norvegicus. Kind of test: Percent reduction in Spontaneously hypertensive rat blood pressure after 4.5 hr of 3 mg/kg, po administration. Type of test: functional.
Test [3] addresses T1, Adrenergic receptor alpha-1 (Rattus norvegicus, UniProt P15823+P23944+P43140).
T1 sequence (P15823 whole entry): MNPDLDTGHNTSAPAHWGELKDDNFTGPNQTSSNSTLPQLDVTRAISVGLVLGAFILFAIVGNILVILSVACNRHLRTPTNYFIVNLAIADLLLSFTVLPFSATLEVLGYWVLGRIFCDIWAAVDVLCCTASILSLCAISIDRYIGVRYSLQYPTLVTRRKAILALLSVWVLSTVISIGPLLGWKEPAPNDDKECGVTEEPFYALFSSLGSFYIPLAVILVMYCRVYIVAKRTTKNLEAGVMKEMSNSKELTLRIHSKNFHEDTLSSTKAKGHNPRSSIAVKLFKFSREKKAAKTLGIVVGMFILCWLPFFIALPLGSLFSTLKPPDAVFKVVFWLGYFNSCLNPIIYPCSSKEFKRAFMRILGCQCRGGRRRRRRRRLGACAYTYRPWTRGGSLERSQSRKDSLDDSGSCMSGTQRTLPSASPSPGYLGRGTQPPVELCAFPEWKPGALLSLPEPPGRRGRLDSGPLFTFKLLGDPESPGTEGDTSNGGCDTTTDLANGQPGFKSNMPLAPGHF
T1 sequence (P23944 whole entry): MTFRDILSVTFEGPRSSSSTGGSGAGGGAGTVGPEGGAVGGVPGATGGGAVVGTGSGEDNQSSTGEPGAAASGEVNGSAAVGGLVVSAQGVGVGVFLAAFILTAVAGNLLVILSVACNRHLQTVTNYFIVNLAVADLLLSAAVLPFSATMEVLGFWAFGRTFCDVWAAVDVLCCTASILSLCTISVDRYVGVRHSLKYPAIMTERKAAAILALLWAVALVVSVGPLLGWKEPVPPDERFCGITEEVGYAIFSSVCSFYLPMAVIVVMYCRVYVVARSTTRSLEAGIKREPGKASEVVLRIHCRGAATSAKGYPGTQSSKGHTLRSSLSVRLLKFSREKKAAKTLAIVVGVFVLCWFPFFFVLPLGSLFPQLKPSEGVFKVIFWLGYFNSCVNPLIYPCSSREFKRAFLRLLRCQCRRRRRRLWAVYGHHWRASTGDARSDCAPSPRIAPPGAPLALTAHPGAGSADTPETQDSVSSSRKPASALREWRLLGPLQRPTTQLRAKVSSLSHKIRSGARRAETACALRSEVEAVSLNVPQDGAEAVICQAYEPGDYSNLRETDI
T1 sequence (P43140 whole entry): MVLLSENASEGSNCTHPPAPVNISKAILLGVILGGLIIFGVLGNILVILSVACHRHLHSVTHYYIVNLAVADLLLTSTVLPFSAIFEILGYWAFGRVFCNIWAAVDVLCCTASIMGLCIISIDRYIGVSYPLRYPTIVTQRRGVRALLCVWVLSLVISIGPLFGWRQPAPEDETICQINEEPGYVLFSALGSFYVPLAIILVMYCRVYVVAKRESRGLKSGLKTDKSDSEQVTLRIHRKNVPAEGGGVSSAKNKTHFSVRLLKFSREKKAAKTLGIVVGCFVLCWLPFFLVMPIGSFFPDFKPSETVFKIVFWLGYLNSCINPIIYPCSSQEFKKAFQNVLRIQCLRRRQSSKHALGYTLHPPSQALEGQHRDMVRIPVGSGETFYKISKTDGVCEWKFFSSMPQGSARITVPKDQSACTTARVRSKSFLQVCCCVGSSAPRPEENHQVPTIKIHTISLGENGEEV
Kind of test: Binding affinity towards alpha-1 adrenergic receptor from rat brain homogenate preparation by displacement of [3H]prazosin. It is filed as tissue-based. On the technique in general: In a radioligand displacement assay an active substance lowers the binding of a labelled ligand.

Test [4] deals with T2, Adrenergic receptor alpha-2 (Rattus norvegicus) (UniProt P22086+P19328+P22909). Kind of test: Binding affinity towards alpha-2 adrenergic receptor from rat brain homogenate preparation by displacement of [3H]clonidine at 10e-6 M concentration. It is filed as tissue-based.
In test [5] the target is T3, Adrenergic receptor alpha-2 (Rattus norvegicus, UniProt P22086+P19328+P22909).
T3 sequence (P22086 whole entry): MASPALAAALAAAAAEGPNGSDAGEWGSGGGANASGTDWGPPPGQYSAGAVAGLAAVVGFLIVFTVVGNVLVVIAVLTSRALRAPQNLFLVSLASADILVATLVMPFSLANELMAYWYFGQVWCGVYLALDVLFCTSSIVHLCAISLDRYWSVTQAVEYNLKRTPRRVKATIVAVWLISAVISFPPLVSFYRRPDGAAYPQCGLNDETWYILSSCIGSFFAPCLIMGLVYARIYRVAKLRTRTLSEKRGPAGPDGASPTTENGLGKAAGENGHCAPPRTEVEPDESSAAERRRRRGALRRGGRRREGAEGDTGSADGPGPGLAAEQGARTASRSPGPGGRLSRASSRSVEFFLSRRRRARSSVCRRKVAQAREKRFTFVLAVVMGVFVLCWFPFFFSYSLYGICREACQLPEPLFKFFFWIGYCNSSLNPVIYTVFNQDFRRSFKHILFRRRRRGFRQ
T3 sequence (P19328 whole entry): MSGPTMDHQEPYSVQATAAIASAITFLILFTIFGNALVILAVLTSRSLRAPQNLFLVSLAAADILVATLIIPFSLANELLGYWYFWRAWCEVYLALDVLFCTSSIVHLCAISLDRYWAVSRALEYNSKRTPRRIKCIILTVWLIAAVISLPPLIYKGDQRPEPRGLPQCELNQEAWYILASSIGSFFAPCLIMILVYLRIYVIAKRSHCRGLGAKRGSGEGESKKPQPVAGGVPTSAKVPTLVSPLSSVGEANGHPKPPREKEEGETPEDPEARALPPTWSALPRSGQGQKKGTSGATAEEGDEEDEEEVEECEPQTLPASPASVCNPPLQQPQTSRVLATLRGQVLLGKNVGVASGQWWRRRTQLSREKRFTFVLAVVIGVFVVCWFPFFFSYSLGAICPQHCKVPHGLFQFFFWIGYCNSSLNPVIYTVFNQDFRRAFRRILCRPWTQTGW
T3 sequence (P22909 whole entry): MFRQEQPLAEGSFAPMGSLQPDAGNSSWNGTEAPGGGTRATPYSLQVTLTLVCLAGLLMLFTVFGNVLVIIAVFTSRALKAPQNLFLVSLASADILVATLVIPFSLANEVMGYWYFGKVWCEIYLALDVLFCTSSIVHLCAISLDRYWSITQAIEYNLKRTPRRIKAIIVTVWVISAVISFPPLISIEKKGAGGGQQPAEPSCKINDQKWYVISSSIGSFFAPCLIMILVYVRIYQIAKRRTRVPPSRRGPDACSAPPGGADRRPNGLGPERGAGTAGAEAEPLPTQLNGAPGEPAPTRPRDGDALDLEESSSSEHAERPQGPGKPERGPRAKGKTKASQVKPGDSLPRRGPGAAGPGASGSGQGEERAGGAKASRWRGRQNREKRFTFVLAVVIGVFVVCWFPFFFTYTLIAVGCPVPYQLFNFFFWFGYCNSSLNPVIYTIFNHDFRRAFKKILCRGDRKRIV
Kind of test: Binding affinity towards alpha-2 adrenergic receptor from rat brain homogenate preparation by displacement of [3H]clonidine. It is filed as tissue-based.

The target in test [6] is T2, Adrenergic receptor alpha-2 (Rattus norvegicus). The experiment in a line: Binding affinity towards alpha-2 adrenergic receptor from rat brain homogenate preparation by displacement of [3H]clonidine at 10E-6 M. Type of test: tissue-based.
For test [7] the target is unchanged. Kind of test: Binding affinity towards alpha-2 adrenergic receptor from rat brain homogenate preparation by displacement of [3H]clonidine at 10e-6 M. Type of test: tissue-based.
Test [8] relates to Rattus norvegicus. The experiment in a line: Percent reduction in Spontaneously hypertensive rat blood pressure after 1 hr of 3 mg/kg, po administration. It is filed as functional.

`COc1cc2nc(N3CCCCC3)cc(N)c2cc1OC`: the Reduction in the test with Rattus norvegicus [1] and in the test on Rattus norvegicus [2] was 6% throughout. In addition, in test [3], the Ki is 2.93 nM. This compound had a Displacement in test [4] of less than 50%.

For the compound `COc1cc2nc(N3CCN(C(C)=O)CC3)cc(N)c2cc1OC`, the Reduction was 4% in the test on Rattus norvegicus [1] and 7% in the test with Rattus norvegicus [2]. In test [3], the Ki turned out to be 1.17 nM.

For `COc1cc2nc(N3CCN(c4nccc(C)n4)CC3)cc(N)c2cc1OC`, the Reduction with Rattus norvegicus [1] came out at 10%; in the test on Rattus norvegicus [2], 8%. In addition, the Ki in test [3] is 0.63 nM. This compound also had a Displacement in test [4] of less than 50%.

For the compound `CCCNC(=O)N1CCN(c2cc(N)c3cc(OC)c(OC)cc3n2)CC1`, the Reduction in the test on Rattus norvegicus [1] is given as 3%; in the test with Rattus norvegicus [2], 8%. The Ki in test [3] is 0.44 nM. This compound also returned a Displacement in test [4] of less than 50%.

As for `COc1cc2nc(N3CCNCC3)cc(N)c2cc1OC`, the Reduction with Rattus norvegicus [1] is given as 11%; with Rattus norvegicus [2] it was 14%. The Ki in test [3] was found to be 30.06 nM. The same compound came in with a Displacement in test [4] of less than 50%.

On to `COc1cc2nc(N3CCN(c4ccccc4)CC3)cc(N)c2cc1OC`, for which the results for the Reduction in the test on Rattus norvegicus [1] and with Rattus norvegicus [2] were 8% and 24%, respectively. The values for the inhibitory constant (Ki) in test [3] and in test [5] were 1.72 nM and 51.6 nM, respectively.

In the case of `CCOc1ccnc(N2CCN(c3cc(N)c4cc(OC)c(OC)cc4n3)CC2)n1`, the Reduction in the test with Rattus norvegicus [1] was determined as 19%; with Rattus norvegicus [2] it was 22%. In addition, the Ki in test [3] stood at 0.42 nM. Further, the Displacement in test [4] is less than 50%.

Take `COc1cc2nc(N(C)C)cc(N)c2cc1OC`: the results for the Reduction in the test with Rattus norvegicus [1] and in the test on Rattus norvegicus [2] were 12% and 11%, respectively. Further, the Displacement in test [6] was less than 50%.

For the compound `COc1cc2nc(N3CCN(Cc4ccccc4)CC3)cc(N)c2cc1OC`, the Reduction in the test with Rattus norvegicus [1] is 8%; with Rattus norvegicus [2], 10%.

Consider `COc1cc2nc(N3CCN(C(=O)c4ccco4)CC3)nc(N)c2cc1OC` [PRAZOSIN], for which the Reduction in the test on Rattus norvegicus [1] was found to be 24%; with Rattus norvegicus [2], 15%.

For the compound `COc1cc2nc(N3CCN(C(=O)c4ccccc4)CC3)cc(N)c2cc1OC`, the Reduction with Rattus norvegicus [1] and with Rattus norvegicus [2] was 19% in each case. The compound also gave a Displacement in test [7] of less than 50%. This compound also had a Ki in test [3] of 0.49 nM.

Take `COc1cc2nc(N3CCN(C(=O)Nc4ccccc4)CC3)cc(N)c2cc1OC`: the Reduction in the test on Rattus norvegicus [1] amounted to 20%; with Rattus norvegicus [2], 25%. Also, the Ki in test [3] is on record as 0.34 nM; in test [5] it was 66 nM.

In the case of `COc1cc2nc(N3CCN(C(=O)c4ccco4)CC3)cc(N)c2cc1OC`, the Reduction is 25% in the test on Rattus norvegicus [2] and 32% with Rattus norvegicus [8]. The compound further had a Ki in test [3] of 0.14 nM. The Displacement in test [4] was less than 50%.

Consider `COc1cc2nc(N3CCN(c4nccc(N(C)C)n4)CC3)cc(N)c2cc1OC`, for which the Reduction came out at 16% in the test on Rattus norvegicus [1] and 19% in the test with Rattus norvegicus [2]. The Ki in test [3] is 0.46 nM; in test [5], 55.3 nM.

Regarding `COc1cc2nc(N3CCN(C(=O)C4COc5ccccc5O4)CC3)cc(N)c2cc1OC` (stereo not drawn), the figures for the Reduction in the test on Rattus norvegicus [1] and in the test with Rattus norvegicus [2] were 6% and 13%, respectively. In addition, the Ki in test [3] turned out to be 0.81 nM. Further, the Displacement in test [4] is less than 50%.

Take `C=CCNC(=O)N1CCN(c2cc(N)c3cc(OC)c(OC)cc3n2)CC1`: the Reduction in the test on Rattus norvegicus [1] is recorded as 15%; with Rattus norvegicus [2] it was 17%. For the same compound, the inhibition constant Ki in test [3] is 0.29 nM. Besides, the Displacement in test [4] was less than 50%.
